Experimental data reported in the OPERA property sets (Mansouri et al. 2018).

Details: not given

SMILES | ready biodegradability | melting point [°C] | boiling point [°C] | log10 biodegradation half-life (days) | log10 vapour pressure (mmHg) | log10 Koc (L/kg) | log10 Koa | log10 Henry constant (atm·m³/mol)
Clc1ccccc1NNc1ccccc1Cl | not readily biodegradable |  |  |  |  |  |  | 
COC(=O)c1ccc(Cl)cc1 |  | 43.5 |  |  |  |  |  | 
CCCCCCCCCCCCCCCCCCCCC | readily biodegradable | 40.5 | 356 | 1.4 | -4.06 |  |  | 
COc1ccc2c(c1)O[C@H]1c3ccc(O)cc3OC[C@@H]21 |  | 128 |  |  |  |  |  | 
CC1CCOC(C)O1 (stereo not drawn) |  |  | 116 |  |  |  |  | 
Cc1ccc(N)c(Cl)c1 |  | 7 | 220 |  |  |  |  | 
C=CCCCCC=C |  |  | 116 |  |  |  |  | 
Cc1cccc(N(C)C(=S)Oc2ccc3c(c2)C2CCC3C2)c1 (stereo not drawn) |  | 93 |  |  |  |  |  | 
CC(=O)Oc1ccccc1[N+](=O)[O-] |  | 40.5 |  |  | -2.66 |  |  | 
C=COC(C)C |  | -140 | 55.5 |  |  |  |  | 
CNC(=O)Oc1ccc2c(c1)[C@]1(C)CCN(C)OC1N2C (stereo partly drawn) |  | 129 |  |  |  |  |  | 
C=CCOC(=O)/C=C\C(=O)OCC=C |  |  |  |  | -2.17 |  |  | 
CB(C)N(C)C |  | -92 | 65 |  |  |  |  | 
Oc1c(Br)cc(Br)c(Br)c1Br |  | 114 |  |  |  |  |  | 
COP(=S)(Oc1cc(Cl)c(Br)cc1Cl)c1ccccc1 (stereo not drawn) |  | 70.4 |  |  | -7.64 | 4.5 |  | 
CCOC(=O)c1ccc(O)cc1 | readily biodegradable | 117 | 298 |  |  | 2.21 |  | 
CC(=O)OCCBr |  | -13.8 | 162 |  |  |  |  | 
CCC1(O)CCCCC1 |  | 34.5 | 166 |  |  |  |  | 
CC(C)(N)CO |  | 25.5 | 166 |  | 0 |  |  | 
C1=NNCC1 |  |  | 144 |  |  |  |  | 
C(=C\c1ccccc1)/c1ccccc1 |  |  | 307 |  | -2.61 |  | 7.48 | 
O=S1(=O)CCCO1 | readily biodegradable | 31.5 |  |  |  |  |  | 
CCC(Br)C(=O)OC (stereo not drawn) |  |  | 168 |  |  |  |  | 
CCc1cccc(C(C)C)c1 |  |  | 192 |  |  |  |  | 

SMILES | ready biodegradability | melting point [°C] | boiling point [°C] | log10 biodegradation half-life (days) | log10 vapour pressure (mmHg) | log10 Koc (L/kg) | log10 Koa | log10 Henry constant (atm·m³/mol)
Clc1cc2oc3c(Cl)cc(Cl)c(Cl)c3c2cc1Cl |  | 237 |  |  | -8.82 |  |  | 
Fc1c(F)c(F)c(-c2c(F)c(F)c(F)c(F)c2F)c(F)c1F |  | 67.5 | 206 |  |  |  |  | 
CCCNc1c([N+](=O)[O-])cc(C(F)(F)F)cc1[N+](=O)[O-] |  |  |  |  |  | 3.61 |  | 
COC(=O)C(F)(F)C(F)(F)C(F)(F)F |  | -86 | 80 |  |  |  |  | 
C[C@]12C/C(=C/O)C(=O)C[C@@H]1CC[C@@H]1[C@@H]2CC[C@@]2(C)[C@H]1CC[C@]2(C)O |  | 179 |  |  |  |  |  | 
CC(C)(O)CCC(C)(C)O |  | 92 | 214 |  |  |  |  | 
CNC(=O)NC | not readily biodegradable | 108 | 269 |  |  |  |  | 
O=C1Nc2ccc(Cl)cc2C(c2ccccc2Cl)=NC1O (stereo not drawn) |  | 167 |  |  |  |  |  | 
O=C(Cc1c(Cl)ccc(Cl)c1Cl)[O][Na] |  |  |  |  |  | 1.72 |  | 
O=C(c1cccs1)c1cccs1 |  | 90 | 326 |  |  |  |  | 
CCOC(=O)Cc1c[nH]c2ccccc12 |  | 44.5 |  |  |  |  |  | 
CC(C)c1ccc(OP(=O)(Oc2ccc(C(C)C)cc2)Oc2ccc(C(C)C)cc2)cc1 | not readily biodegradable |  |  |  |  |  |  | 
C=CC=CCC |  |  | 73.5 |  | 2.11 |  |  | 
Cc1cccc2cccnc12 |  | -80 | 248 |  | -1.6 |  |  | 
CC1=CCC(C(=O)O)C1(C)C (stereo not drawn) |  | 40.5 | 242 |  |  |  |  | 
CCCCOCCOCCO | readily biodegradable | -68 | 231 |  | -1.66 |  |  | -8.14
O=Cc1ccc2ccccc2c1 |  | 62 |  |  |  |  |  | 
Cc1cc(C)cc(Br)c1 |  |  | 204 |  |  |  |  | 
NC[C@H]1CCCO1 |  |  | 153 |  |  |  |  | 
CC(=O)CC(c1ccco1)c1c(O)c2ccccc2oc1=O (stereo not drawn) |  | 124 |  |  |  |  |  | 
CC1(C)OCCO1 |  |  | 92.5 |  |  |  |  | 
O=C(O)c1cc(Cl)c(Cl)cc1Cl |  | 166 |  |  |  |  |  | 
CC1(C)CCC(Cc2ccc(Cl)cc2)C1(O)Cn1cncn1 (stereo not drawn) |  | 112 |  |  | -7.03 |  |  | 
O=NN(CCO)CCO | readily biodegradable |  |  |  |  |  |  | 

SMILES | ready biodegradability | melting point [°C] | boiling point [°C] | log10 biodegradation half-life (days) | log10 vapour pressure (mmHg) | log10 Koc (L/kg) | log10 Koa | log10 Henry constant (atm·m³/mol)
C[C@H]1CCC[C@H](C)C1=O |  |  | 175 |  |  |  |  | 
CCC(C)O (stereo not drawn) | readily biodegradable |  |  |  | 1.26 |  | 3.85 | -5.04
CCCCCCc1ccc(-c2ccc(C#N)cc2)cc1 | not readily biodegradable |  |  |  |  |  |  | 
CCCCCCCCCCCCCCCCCCCCCCCCCCCCCCCCCCCCC | readily biodegradable |  | 505 |  |  |  |  | 
Nc1nc(N)nc(NC2CC2)n1 |  | 225 |  |  | -8.47 | 2.3 |  | 
C=CCC1(C(C)C)C(=O)NC(=O)NC1=O |  | 141 |  |  |  |  |  | 
Cc1c(C)c2ccccc2c2ccccc12 |  | 144 |  |  |  |  |  | 
NC(=O)NCc1ccccc1 |  | 148 |  |  |  |  |  | 
CCCOC(=O)Cn1cc(I)c(=O)c(I)c1 |  | 186 |  |  |  |  |  | 
Brc1ccc(Br)c(Br)c1 |  | 44.5 | 275 |  |  |  |  | 
CCCC=Cc1ccccc1 |  |  | 217 |  |  |  |  | 
CCCC(C)(C)C(C)C |  | -117 | 138 |  | 0.993 |  |  | 
CCOCCOCCOCC |  | -45 | 188 |  | -0.284 |  |  | 
CC(C)(C)CCC(C)(C)C |  | -12.6 | 137 |  | 0.942 |  |  | 
O=C(O)C1c2ccccc2-c2ccccc21 |  | 230 |  |  |  |  |  | 
CCCc1ccc(C)cc1 |  | -63.6 | 183 |  | 0.043 |  |  | 
CCCC(=O)NN |  | 45.5 |  |  |  |  |  | 
Oc1ccccc1-c1ccccc1O |  | 109 | 320 |  |  |  |  | 
Brc1cccnc1 |  |  | 173 |  | 0.244 |  |  | 
CCCCCCCCCCCCCCCCOC(=O)C(C)O (stereo not drawn) |  | 41 |  |  |  |  |  | 
CCOc1cc(OCC)c(C(=O)CCC(=O)O)cc1OCC |  | 150 |  |  |  |  |  | 
O=C(O)c1cccc(Oc2ccccc2)c1 |  | 150 |  |  |  |  |  | 
CC(C)(C)CC(=O)OCC(=O)[C@@]12OC(C)(C)O[C@@H]1C[C@H]1[C@@H]3CCC4=CC(=O)C=C[C@]4(C)[C@@]3(F)[C@@H](O)C[C@@]12C |  | 295 |  |  |  |  |  | 
CSc1nc2ccccc2s1 |  | 44 |  |  |  |  |  | 

SMILES | ready biodegradability | melting point [°C] | boiling point [°C] | log10 biodegradation half-life (days) | log10 vapour pressure (mmHg) | log10 Koc (L/kg) | log10 Koa | log10 Henry constant (atm·m³/mol)
NCCCCN |  | 27.5 | 158 |  |  |  |  | 
O=P(OC(Cl)CCCl)(OC(Cl)CCCl)OC(Cl)CCCl (stereo not drawn) |  | 26.7 |  |  |  |  |  | 
O=C(O)c1ccc(Cl)c(Cl)c1 | not readily biodegradable |  |  |  |  |  |  | 
CC(C)CCC[C@@H](C)[C@H]1CC[C@H]2C3=CC=C4C[C@@H](O)CC[C@]4(C)[C@H]3CC[C@]12C |  | 150 |  |  |  |  |  | 
CC(=O)Oc1cccc(C(=O)O)c1OC(C)=O |  | 149 |  |  |  |  |  | 
CC(C)(OOC(C)(C)c1ccccc1)c1ccccc1 | not readily biodegradable |  | 396 |  |  |  |  | 
CCCN(CCC)c1c([N+](=O)[O-])cc(C(C)C)cc1[N+](=O)[O-] |  |  |  |  | -4.52 | 4 |  | 
Nc1c(Cl)cccc1C(=O)O |  | 190 |  |  |  |  |  | 
Nc1ccc(S(=O)(=O)c2ccc(NC(=O)CCC(=O)O)cc2)cc1 |  | 157 |  |  |  |  |  | 
Cc1cn([C@H]2C[C@H](F)[C@@H](CO)O2)c(=O)[nH]c1=O |  | 177 |  |  |  |  |  | 
CCCCCCCC/C=C\CCCCCCCC#N |  | -1 |  |  |  |  |  | 
Oc1ccccc1Cl | not readily biodegradable | 9.8 | 175 |  | 0.403 | 2.6 |  | -4.95
C=C[Si](C)(Cl)Cl |  |  | 92.5 |  |  |  |  | 
CCCCC(CC)CO (stereo not drawn) | readily biodegradable | -70 |  |  | -0.867 |  |  | 
CC(C)CCOC(=O)C(C)O (stereo not drawn) |  |  | 202 |  |  |  |  | 
CC=CCCCC |  |  |  |  | 1.68 |  |  | 
COCCOCCOCCOC |  | -45 | 216 |  | -1.39 |  |  | 
O=C1C(F)=C(F)C(=O)C(F)=C1F |  | 184 |  |  |  |  |  | 
CC1(C)N=C(N)N=C(N)N1c1ccc(Cl)cc1 |  | 146 |  |  |  |  |  | 
NNCc1ccccc1 |  | 26 |  |  |  |  |  | 
CNCc1ccco1 |  |  | 149 |  |  |  |  | 
O=C(O)CCCCCCCCCCCCC(=O)O | readily biodegradable | 127 |  |  |  |  |  | 
Cc1ccc(Cl)c(Cl)c1Cl |  | 43.5 | 244 |  |  |  |  | 
COc1ccccc1Br |  | 2.5 | 216 |  |  |  |  | 

Same assay, conditions: fish

SMILES | log10 BCF | log10 biotransformation half-life (days)
Clc1ccccc1NNc1ccccc1Cl | 3.66 | 
COP(=S)(Oc1cc(Cl)c(Br)cc1Cl)c1ccccc1 (stereo not drawn) | 3.78 | 1.26
ClC1C(Cl)C(Cl)C(Cl)C(Cl)C1Cl (stereo not drawn) |  | 1.49
CC1(C)CCC(Cc2ccc(Cl)cc2)C1(O)Cn1cncn1 (stereo not drawn) |  | 0.23
Clc1ccc(-c2c(Cl)cc(Cl)c(Cl)c2Cl)cc1 |  | 1.84
CCCCCCc1ccc(-c2ccc(C#N)cc2)cc1 | 3.52 | 0.85
Brc1ccc(Br)c(Br)c1 | 3.63 | 
O=C(O)c1ccc(Cl)c(Cl)c1 | 0.36 | 
CC(C)(OOC(C)(C)c1ccccc1)c1ccccc1 | 2.62 | -0.01
Oc1ccccc1Cl | 1.35 | -0.38
